Results published in the NIST ThermoML archive (doi:10.1021/je060084c).

What was measured:
[1] = 298.15 K; for mass density: 101.33 kPa, Liquid
[2] = refractive index (Na D-line) (dimensionless); settings: 298.15 K; 101.33 kPa; Liquid; Standard Abbe refractometry
[3] = xn = mol fraction of the nth substance listed; settings: 298.15 K; for mass density: 101 kPa, Liquid
[4] = refractive index (Na D-line) (dimensionless); xn = mol fraction of the nth substance listed; settings: 298.15 K, 101 kPa, Liquid, Standard Abbe refractometry

CCCC(=O)O [butanoic acid]
Settings	mass density [kg/m3]	refractive index	surface tension liquid-gas [mN/m]
[1]	953.17	–	26.19
[2]	–	1.39599	–

CCCC(=O)O [butanoic acid] + O
Settings	mass density, [3] [kg/m3]	refractive index, [4]	surface tension liquid-gas, [3] [mN/m]
x1 = 4e-05	997.14	1.33256	71.12
x1 = 0.0001	997.28	1.33259	70.47
x1 = 0.0006	997.35	1.33282	66.32
x1 = 0.0016	997.39	1.33325	60.32
x1 = 0.0028	–	–	55.12
x1 = 0.0056	998.24	1.33514	46.34
x1 = 0.0075	–	–	42.12
x1 = 0.0136	999.83	1.33877	35.88
x1 = 0.0201	1000.84	1.34064	31.94
x1 = 0.0299	1001.79	1.34506	29.24
x1 = 0.048	1001.61	1.35064	28.48
x1 = 0.0596	1000.55	1.35359	28.35
x1 = 0.0865	998.76	1.35959	28.23
x1 = 0.1034	997.68	1.36283	28.15
x1 = 0.2033	992.5	1.37695	27.92
x1 = 0.2997	987.71	1.38524	27.73
x1 = 0.381	983.12	1.38923	27.66
x1 = 0.5038	977.2	1.3933	27.56
x1 = 0.5763	973.62	1.39471	27.42
x1 = 0.7036	967.47	1.39625	27.13
x1 = 0.8019	962.35	1.39667	26.9
x1 = 0.9189	957.18	1.39654	26.51

O=CO [formic acid]
Settings	mass density [kg/m3]	refractive index	surface tension liquid-gas [mN/m]
[1]	1211.29	–	38.17
[2]	–	1.37459	–

CCC(=O)O [propanoic acid] + O
Settings	mass density, [3] [kg/m3]	refractive index, [4]	surface tension liquid-gas, [3] [mN/m]
x1 = 0.0008	997.47	1.33292	68.52
x1 = 0.0016	997.64	1.33304	66.47
x1 = 0.0029	998.15	1.33367	63.66
x1 = 0.0044	998.68	1.33422	60.98
x1 = 0.0064	999.29	1.33485	57.91
x1 = 0.0103	1000.6	1.33606	53.54
x1 = 0.0179	1002.71	1.3385	48.16
x1 = 0.0272	1005.51	1.34145	44.12
x1 = 0.047	1006.86	1.34689	38.89
x1 = 0.0618	1008.97	1.35074	36.93
x1 = 0.0989	1017.17	1.35796	34.71
x1 = 0.2016	1022.07	1.37093	32.25
x1 = 0.3008	1021.51	1.3784	31.12
x1 = 0.4003	1018.87	1.38294	30.19
x1 = 0.5009	1014.33	1.38564	29.36
x1 = 0.6039	1010.12	1.3869	28.56
x1 = 0.702	1005.03	1.38721	27.91
x1 = 0.7666	1002.83	1.38709	27.52
x1 = 0.8784	996.68	1.38599	26.92

O=CO [formic acid] + O
Settings	mass density, [3] [kg/m3]	refractive index, [4]	surface tension liquid-gas, [3] [mN/m]
x1 = 0.0007	997.52	1.33265	71.48
x1 = 0.0015	998.02	1.33269	71.14
x1 = 0.0028	998.79	1.33271	70.65
x1 = 0.0067	1001.27	1.33343	69.45
x1 = 0.0106	1003.6	1.3344	68.59
x1 = 0.0154	1006.31	1.33496	67.53
x1 = 0.0277	1013.84	1.33633	65.46
x1 = 0.0442	–	–	63.13
x1 = 0.0538	1026.93	1.33912	–
x1 = 0.0755	–	–	59.92
x1 = 0.1098	1052.76	1.34454	57.29
x1 = 0.1539	1069.49	1.34829	55.23
x1 = 0.204	1086.51	1.35223	52.74
x1 = 0.3004	1114.3	1.35863	49.18
x1 = 0.4178	1141.55	1.36478	47.25
x1 = 0.5101	1158.59	1.36885	45.73
x1 = 0.6133	1174.83	1.3722	43.41
x1 = 0.7058	1187.06	1.37444	41.42
x1 = 0.8162	1198.4	1.37543	40.12
x1 = 0.8967	1204.13	1.37543	39.13

CC(=O)O [acetic acid] + O
Settings	mass density, [3] [kg/m3]	refractive index, [4]	surface tension liquid-gas, [3] [mN/m]
x1 = 0.0001	–	–	71.79
x1 = 0.0005	–	–	71.18
x1 = 0.0007	997.41	1.33285	71.04
x1 = 0.0008	–	–	70.84
x1 = 0.0012	997.88	1.33312	70.37
x1 = 0.006	998.92	1.33422	66.17
x1 = 0.0066	–	–	65.76
x1 = 0.0119	1000.78	1.33576	62.57
x1 = 0.0138	–	–	61.57
x1 = 0.0234	–	–	58.26
x1 = 0.0257	1004.39	1.33874	57.45
x1 = 0.0404	–	–	53.14
x1 = 0.0516	1011.91	1.34364	50.64
x1 = 0.0746	–	–	47.25
x1 = 0.1086	–	–	43.43
x1 = 0.1108	1031.57	1.35281	43.39
x1 = 0.1513	1040.9	1.35708	40.12
x1 = 0.1814	1046.55	1.36009	39.24
x1 = 0.2288	1052.46	1.36386	38.17
x1 = 0.3053	1058.74	1.36818	36.5
x1 = 0.4129	1063.49	1.3723	34.8
x1 = 0.516	1064.54	1.37456	33.23
x1 = 0.6068	1063.64	1.37543	31.87
x1 = 0.7035	1061.07	1.37543	30.32
x1 = 0.8067	1057	1.37459	29.32
x1 = 0.9076	1051.89	1.37257	28.42

CC(=O)O [acetic acid]
Settings	mass density [kg/m3]	refractive index	surface tension liquid-gas [mN/m]
[1]	1043.95	–	27.08
[2]	–	1.36969	–

CCC(=O)O [propanoic acid]
Settings	mass density [kg/m3]	refractive index	surface tension liquid-gas [mN/m]
[1]	988.33	–	26.15
[2]	–	1.38484	–
